Article PMC4076210, “Discovery of Novel AKT Inhibitors with Enhanced Anti-Tumor Effects in Combination with the MEK Inhibitor” (PLoS ONE, 2014)
Like-named read-outs stand apart in the source and are kept apart here.

How the values were obtained:
[1] = Plasma insulin after single oral dose; assay type: in vivo, mouse
Method: Blood glucose levels were determined from tail vein puncture in mice using a handheld glucometer. Plasma Insulin levels were using the Rat Ultrasensitive Insulin ELISA kit (Crystal Chem Inc).

[2] = target: T1, VRK2(h) (Homo sapiens, UniProt Q86Y07); assay: Kinase panel; assay type: biochemical
T1 construct: purchased Millipore KinaseProfiler

[3] = target: PKG1β (Homo sapiens, UniProt Q13976); assay: Kinase IC50 assay; assay type: biochemical
[4] = target: PKCζ (Homo sapiens, UniProt Q05513); assay: Kinase IC50 assay; assay type: biochemical
[5] = target: T2, SAPK3(h) (Homo sapiens, UniProt P53778); assay: Kinase panel; assay type: biochemical
T2 construct: purchased Millipore KinaseProfiler
T2 sequence (P53778 1-367): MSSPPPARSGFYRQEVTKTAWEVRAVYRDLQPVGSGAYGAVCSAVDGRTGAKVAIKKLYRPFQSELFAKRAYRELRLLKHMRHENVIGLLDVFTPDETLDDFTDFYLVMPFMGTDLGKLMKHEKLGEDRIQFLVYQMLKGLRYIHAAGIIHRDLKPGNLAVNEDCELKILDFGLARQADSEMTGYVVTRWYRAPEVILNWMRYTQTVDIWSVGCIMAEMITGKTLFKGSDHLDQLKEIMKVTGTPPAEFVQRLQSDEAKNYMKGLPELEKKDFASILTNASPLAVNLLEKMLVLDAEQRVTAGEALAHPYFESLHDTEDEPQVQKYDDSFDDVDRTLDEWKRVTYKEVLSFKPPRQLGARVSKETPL

[6] = target: T3, EGFR(T790M)(h) (Homo sapiens, UniProt P00533, T790M); assay: Kinase panel; assay type: biochemical
T3 construct: purchased Millipore KinaseProfiler

[7] = target: T4, CHK2(I157T)(h) (Homo sapiens, UniProt O96017, I157T); assay: Kinase panel; assay type: biochemical
T4 construct: purchased Millipore KinaseProfiler

[8] = target: T5, Rsk3(h) (Homo sapiens, UniProt Q15349); assay: Kinase panel; assay type: biochemical
T5 construct: purchased Millipore KinaseProfiler

[9] = target: T6, ULK3(h) (Homo sapiens, UniProt Q6PHR2); assay: Kinase panel; assay type: biochemical
T6 construct: purchased Millipore KinaseProfiler
T6 sequence (Q6PHR2 1-472): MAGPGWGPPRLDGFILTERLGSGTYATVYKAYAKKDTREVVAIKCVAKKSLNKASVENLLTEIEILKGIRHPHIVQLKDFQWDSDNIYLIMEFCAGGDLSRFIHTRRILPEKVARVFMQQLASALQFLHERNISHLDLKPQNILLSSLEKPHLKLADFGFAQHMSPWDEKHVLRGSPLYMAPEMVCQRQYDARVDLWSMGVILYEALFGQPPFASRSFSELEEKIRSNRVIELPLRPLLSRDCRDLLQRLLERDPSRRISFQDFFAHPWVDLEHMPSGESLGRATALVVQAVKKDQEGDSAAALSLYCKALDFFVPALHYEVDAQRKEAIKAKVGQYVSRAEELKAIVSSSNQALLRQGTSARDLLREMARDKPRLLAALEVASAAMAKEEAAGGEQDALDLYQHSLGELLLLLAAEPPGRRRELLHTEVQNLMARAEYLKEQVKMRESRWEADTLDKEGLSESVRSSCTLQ

[10] = target: T7, SAPK2b(h) (Homo sapiens, UniProt Q15759); assay: Kinase panel; assay type: biochemical
T7 construct: purchased Millipore KinaseProfiler

[11] = target: T8, NEK6(h) (Homo sapiens, UniProt Q9HC98); assay: Kinase panel; assay type: biochemical
T8 construct: purchased Millipore KinaseProfiler

[12] = target: T9, FGFR1(h) (Homo sapiens, UniProt P11362); assay: Kinase panel; assay type: biochemical
T9 construct: purchased Millipore KinaseProfiler

[13] = target: T10, Fes(h) (Homo sapiens, UniProt P07332); assay: Kinase panel; assay type: biochemical
T10 construct: purchased Millipore KinaseProfiler

[14] = target: T11, PKCι(h) (Homo sapiens, UniProt P41743); assay: Kinase panel; assay type: biochemical
T11 construct: purchased Millipore KinaseProfiler
T11 sequence (P41743 1-596): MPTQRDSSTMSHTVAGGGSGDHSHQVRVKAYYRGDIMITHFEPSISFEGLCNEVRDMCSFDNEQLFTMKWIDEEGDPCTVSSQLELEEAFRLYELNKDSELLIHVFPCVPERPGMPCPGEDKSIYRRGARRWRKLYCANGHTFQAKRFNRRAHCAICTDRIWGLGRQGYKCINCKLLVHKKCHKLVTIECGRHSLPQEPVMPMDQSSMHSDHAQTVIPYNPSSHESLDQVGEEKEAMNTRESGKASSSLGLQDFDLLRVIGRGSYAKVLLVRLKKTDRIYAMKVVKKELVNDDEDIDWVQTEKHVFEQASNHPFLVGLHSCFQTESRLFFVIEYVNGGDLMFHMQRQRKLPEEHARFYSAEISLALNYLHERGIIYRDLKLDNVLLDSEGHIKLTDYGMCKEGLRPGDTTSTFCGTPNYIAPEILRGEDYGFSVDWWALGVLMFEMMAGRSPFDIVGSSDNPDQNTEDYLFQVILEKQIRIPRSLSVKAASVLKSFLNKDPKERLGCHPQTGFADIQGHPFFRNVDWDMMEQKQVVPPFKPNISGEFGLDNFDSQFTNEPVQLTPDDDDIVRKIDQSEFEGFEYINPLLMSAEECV

T10 sequence (P07332 whole entry): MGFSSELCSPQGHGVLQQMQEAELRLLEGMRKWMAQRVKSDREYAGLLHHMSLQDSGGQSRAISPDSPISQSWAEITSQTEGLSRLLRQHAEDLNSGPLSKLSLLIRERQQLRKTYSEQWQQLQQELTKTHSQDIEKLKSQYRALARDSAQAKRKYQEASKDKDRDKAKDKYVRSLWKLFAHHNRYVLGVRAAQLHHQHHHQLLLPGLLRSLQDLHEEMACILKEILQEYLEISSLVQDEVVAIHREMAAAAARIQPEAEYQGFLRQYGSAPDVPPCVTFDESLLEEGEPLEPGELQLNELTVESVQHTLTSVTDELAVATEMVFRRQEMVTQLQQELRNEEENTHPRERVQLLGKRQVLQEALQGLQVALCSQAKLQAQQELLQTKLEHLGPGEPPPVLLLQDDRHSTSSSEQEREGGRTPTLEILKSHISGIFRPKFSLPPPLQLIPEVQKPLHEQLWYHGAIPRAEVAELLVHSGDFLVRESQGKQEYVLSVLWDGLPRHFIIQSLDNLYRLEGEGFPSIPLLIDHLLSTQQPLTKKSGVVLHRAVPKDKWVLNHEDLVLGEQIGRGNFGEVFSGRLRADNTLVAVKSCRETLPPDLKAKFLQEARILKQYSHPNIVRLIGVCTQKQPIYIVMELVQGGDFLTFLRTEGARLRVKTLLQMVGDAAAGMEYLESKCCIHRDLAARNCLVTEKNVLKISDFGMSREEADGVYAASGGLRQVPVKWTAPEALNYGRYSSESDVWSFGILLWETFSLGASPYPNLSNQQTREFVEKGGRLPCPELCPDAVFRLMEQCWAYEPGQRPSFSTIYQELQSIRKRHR
T3 sequence (P00533 25-1210 T790M): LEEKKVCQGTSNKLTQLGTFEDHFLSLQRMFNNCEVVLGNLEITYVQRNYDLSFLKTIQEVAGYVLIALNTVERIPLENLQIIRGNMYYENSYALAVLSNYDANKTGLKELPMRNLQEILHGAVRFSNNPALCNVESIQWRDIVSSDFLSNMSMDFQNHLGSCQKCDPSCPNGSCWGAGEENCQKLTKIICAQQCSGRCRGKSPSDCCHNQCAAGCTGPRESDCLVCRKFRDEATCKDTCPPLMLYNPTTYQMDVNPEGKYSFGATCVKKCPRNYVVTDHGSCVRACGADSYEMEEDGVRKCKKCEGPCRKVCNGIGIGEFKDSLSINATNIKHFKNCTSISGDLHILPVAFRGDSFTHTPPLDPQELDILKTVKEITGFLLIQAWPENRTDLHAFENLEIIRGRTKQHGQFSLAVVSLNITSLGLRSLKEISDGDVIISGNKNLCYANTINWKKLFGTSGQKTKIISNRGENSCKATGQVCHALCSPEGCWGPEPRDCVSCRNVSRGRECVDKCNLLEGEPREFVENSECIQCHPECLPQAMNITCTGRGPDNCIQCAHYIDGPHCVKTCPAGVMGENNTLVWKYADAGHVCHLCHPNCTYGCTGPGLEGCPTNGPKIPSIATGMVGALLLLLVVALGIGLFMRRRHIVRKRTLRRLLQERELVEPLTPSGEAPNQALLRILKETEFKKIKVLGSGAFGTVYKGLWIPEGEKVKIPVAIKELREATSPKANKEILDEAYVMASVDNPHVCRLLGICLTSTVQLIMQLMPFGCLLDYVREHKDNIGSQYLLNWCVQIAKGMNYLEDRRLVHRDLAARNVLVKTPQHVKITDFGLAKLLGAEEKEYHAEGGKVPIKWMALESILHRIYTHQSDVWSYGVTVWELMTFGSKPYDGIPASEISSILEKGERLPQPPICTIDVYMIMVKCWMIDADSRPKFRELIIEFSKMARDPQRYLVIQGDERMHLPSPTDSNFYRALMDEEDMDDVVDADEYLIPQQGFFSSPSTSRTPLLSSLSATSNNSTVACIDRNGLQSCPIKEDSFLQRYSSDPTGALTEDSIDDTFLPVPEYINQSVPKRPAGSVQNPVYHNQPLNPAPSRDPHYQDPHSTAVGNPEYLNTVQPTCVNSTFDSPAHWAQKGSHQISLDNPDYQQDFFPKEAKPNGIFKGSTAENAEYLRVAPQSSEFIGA
T8 sequence (Q9HC98 whole entry): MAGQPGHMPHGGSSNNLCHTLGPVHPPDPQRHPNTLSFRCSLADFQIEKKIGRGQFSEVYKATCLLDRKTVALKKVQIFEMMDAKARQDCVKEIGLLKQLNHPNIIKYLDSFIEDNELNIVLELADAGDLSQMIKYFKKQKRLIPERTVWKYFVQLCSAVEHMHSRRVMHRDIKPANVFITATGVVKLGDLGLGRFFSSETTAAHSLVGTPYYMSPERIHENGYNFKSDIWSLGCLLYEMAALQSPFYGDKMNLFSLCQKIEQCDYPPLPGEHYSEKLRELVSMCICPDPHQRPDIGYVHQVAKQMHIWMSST
T7 sequence (Q15759 whole entry): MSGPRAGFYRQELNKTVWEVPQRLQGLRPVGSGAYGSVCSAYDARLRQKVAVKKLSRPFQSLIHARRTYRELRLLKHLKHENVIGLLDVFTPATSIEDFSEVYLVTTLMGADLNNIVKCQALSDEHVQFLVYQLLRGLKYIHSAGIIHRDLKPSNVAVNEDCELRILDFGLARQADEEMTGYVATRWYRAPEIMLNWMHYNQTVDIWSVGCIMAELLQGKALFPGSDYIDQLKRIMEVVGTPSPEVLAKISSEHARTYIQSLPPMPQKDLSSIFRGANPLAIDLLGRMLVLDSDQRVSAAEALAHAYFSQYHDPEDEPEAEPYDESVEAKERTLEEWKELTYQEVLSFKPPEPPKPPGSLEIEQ
T1 sequence (Q86Y07 whole entry): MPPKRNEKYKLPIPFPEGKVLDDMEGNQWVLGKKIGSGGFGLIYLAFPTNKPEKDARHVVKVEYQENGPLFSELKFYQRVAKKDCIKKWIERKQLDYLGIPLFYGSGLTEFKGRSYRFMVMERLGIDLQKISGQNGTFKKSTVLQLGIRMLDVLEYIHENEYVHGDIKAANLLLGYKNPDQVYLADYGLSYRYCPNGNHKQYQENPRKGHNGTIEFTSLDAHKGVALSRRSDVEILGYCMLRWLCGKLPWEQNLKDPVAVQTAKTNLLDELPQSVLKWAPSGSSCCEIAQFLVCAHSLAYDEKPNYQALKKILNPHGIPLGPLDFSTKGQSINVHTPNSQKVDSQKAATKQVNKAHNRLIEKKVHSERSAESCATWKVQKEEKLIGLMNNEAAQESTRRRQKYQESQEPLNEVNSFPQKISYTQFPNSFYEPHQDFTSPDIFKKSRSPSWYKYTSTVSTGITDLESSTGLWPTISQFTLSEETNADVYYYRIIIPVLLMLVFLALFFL
T5 sequence (Q15349 whole entry): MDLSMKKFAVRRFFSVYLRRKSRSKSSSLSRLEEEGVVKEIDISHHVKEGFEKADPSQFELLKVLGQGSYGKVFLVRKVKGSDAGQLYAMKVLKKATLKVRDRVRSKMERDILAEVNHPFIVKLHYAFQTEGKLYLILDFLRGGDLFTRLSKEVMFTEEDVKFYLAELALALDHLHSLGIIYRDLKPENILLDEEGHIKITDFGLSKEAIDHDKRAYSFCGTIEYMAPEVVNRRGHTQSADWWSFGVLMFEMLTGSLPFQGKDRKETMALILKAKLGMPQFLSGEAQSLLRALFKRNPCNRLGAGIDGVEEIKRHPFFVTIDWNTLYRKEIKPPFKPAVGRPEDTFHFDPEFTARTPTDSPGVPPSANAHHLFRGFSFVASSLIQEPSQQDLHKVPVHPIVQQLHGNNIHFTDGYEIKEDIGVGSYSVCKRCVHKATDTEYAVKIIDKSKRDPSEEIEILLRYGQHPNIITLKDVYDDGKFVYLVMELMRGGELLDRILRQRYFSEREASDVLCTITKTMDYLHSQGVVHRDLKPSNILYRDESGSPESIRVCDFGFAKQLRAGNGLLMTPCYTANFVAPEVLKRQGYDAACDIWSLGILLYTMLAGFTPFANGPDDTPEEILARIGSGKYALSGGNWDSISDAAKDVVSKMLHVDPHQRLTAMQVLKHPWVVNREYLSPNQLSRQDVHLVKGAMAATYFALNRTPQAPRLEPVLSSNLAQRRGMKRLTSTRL
T4 sequence (O96017 whole entry I157T): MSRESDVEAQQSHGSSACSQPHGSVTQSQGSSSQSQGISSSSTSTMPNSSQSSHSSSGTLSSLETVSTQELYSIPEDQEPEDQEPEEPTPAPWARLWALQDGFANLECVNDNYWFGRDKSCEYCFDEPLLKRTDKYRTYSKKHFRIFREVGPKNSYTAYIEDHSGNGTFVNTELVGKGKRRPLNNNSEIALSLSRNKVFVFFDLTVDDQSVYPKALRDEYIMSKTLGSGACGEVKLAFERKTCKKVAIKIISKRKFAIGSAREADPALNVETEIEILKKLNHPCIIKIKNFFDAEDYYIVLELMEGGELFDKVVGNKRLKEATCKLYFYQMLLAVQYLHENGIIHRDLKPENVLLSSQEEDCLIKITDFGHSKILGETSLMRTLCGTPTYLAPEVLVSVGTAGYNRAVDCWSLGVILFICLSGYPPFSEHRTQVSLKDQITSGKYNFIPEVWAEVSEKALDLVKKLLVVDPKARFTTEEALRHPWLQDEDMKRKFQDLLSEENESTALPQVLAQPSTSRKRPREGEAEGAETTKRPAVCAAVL

For `Cn1ncc(Cl)c1-c1cc(C(=O)N[C@H](CN)Cc2cccc(F)c2)sc1Cl` [GSK2110183], the “time for insulin to return to baseline” value ([1]; 100 mg/kg single oral dose) was at most 8 h, the insulin level ([1]; 100 mg/kg single oral dose, 4 h post dosing) was 105.6 ng/mL and the inhibition at 0.5 µM [2] was -8%. The inhibition at 10 µM [2] was -5%, the IC50 [3] was 4 nM and the IC50 [4] was over 1000 nM. It also gave an inhibition at 0.5 µM [5] of -6%, an inhibition at 10 µM [5] of 20% and an inhibition at 0.5 µM [6] of -1%. It also gave an inhibition at 10 µM [6] of 2%, an inhibition at 0.5 µM [7] of -4% and an inhibition at 10 µM [7] of 0%. It also gave an inhibition at 0.5 µM [8] of 35%, an inhibition at 10 µM [8] of 89% and an inhibition at 0.5 µM [9] of 20%. It also gave an inhibition at 10 µM [9] of 72%, an inhibition at 0.5 µM [10] of -8% and an inhibition at 10 µM [10] of -13%. For the same compound, the inhibition at 0.5 µM [11] was -25%, the inhibition at 10 µM [11] was -11% and the inhibition at 0.5 µM [12] was -8%. It also gave an inhibition at 10 µM [12] of -5%, an inhibition at 0.5 µM [13] of 9% and an inhibition at 10 µM [13] of 48%. The inhibition at 0.5 µM [14] was 1% and the inhibition at 10 µM [14] was 50%.
For `Cn1ncc(Cl)c1-c1cc(C(=O)N[C@H](CN)Cc2ccc(F)c(F)c2)oc1Cl` [GSK2141795], the “time for insulin to return to normal” value ([1]; single 30 mg/kg dose) was at most 8 h, the plasma insulin ([1]; single 30 mg/kg dose, concomitant with glucose at 2 h) was 188 ng/mL and the inhibition at 0.5 µM ([2]; 0.5 µM, read-out: % Inhibition) was -15%. It also gave an inhibition at 10 µM ([2]; 10 µM, read-out: % Inhibition) of -5%, an IC50 [3] of under 1 nM and an IC50 [4] of over 1000 nM. It also gave an inhibition at 0.5 µM ([5]; 0.5 µM, read-out: % Inhibition) of -14%, an inhibition at 10 µM ([5]; 10 µM, read-out: % Inhibition) of 14% and an inhibition at 0.5 µM ([6]; 0.5 µM, read-out: % Inhibition) of -5%. It also gave an inhibition at 10 µM ([6]; 10 µM, read-out: % Inhibition) of 2%, an inhibition at 0.5 µM ([7]; 0.5 µM, read-out: % Inhibition) of 55% and an inhibition at 10 µM ([7]; 10 µM, read-out: % Inhibition) of 88%. It also gave an inhibition at 0.5 µM ([8]; 0.5 µM, read-out: % Inhibition) of 51%, an inhibition at 10 µM ([8]; 10 µM, read-out: % Inhibition) of 94% and an inhibition at 0.5 µM ([9]; 0.5 µM, read-out: % Inhibition) of 0%. The inhibition at 10 µM ([9]; 10 µM, read-out: % Inhibition) was 49%, the inhibition at 0.5 µM ([10]; 0.5 µM, read-out: % Inhibition) was -17% and the inhibition at 10 µM ([10]; 10 µM, read-out: % Inhibition) was -9%. For the same compound, the inhibition at 0.5 µM ([11]; 0.5 µM, read-out: % Inhibition) was -17%, the inhibition at 10 µM ([11]; 10 µM, read-out: % Inhibition) was -22% and the inhibition at 0.5 µM ([12]; 0.5 µM, read-out: % Inhibition) was -15%. The inhibition at 10 µM ([12]; 10 µM, read-out: % Inhibition) was -6%, the inhibition at 0.5 µM ([13]; 0.5 µM, read-out: % Inhibition) was 0% and the inhibition at 10 µM ([13]; 10 µM, read-out: % Inhibition) was 80%. The inhibition at 0.5 µM ([14]; 0.5 µM, read-out: % Inhibition) was 0% and the inhibition at 10 µM ([14]; 10 µM, read-out: % Inhibition) was 43%.
